PubChem BioAssay (NCI)
“And” between values parts separate entries of the source, which are not always exact repeats. Identical values can stand only once.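 Grown in 96-well plates, cells were treated for 48 hours with each compound at five concentrations. Insufficient inhibition: endpoint recorded as highest concentration tested. The concentration for 50% growth inhibition is given as GI50. TGI denotes the concentration required for complete inhibition of growth.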

Experiments:
Experiment in all cases: NCI anticancer screen, dose series, 48 h
EKVX NSCLC = test system: EKVX NSCLC
HCT-15 colon = test system: HCT-15 colon
HOP-92 NSCLC = test system: HOP-92 NSCLC
M14 melanoma = test system: M14 melanoma
NCI-H23 lung = test system: NCI-H23 lung
OVCAR-8 ovarian = test system: OVCAR-8 ovarian
RXF 393 renal = test system: RXF 393 renal
SK-OV-3 ovarian = test system: SK-OV-3 ovarian
SNB-19 CNS = test system: SNB-19 CNS
LOX IMVI melanoma = test system: LOX IMVI melanoma

Row | Structure (SMILES) | TGI (EKVX NSCLC) | TGI (HCT-15 colon) | TGI (HOP-92 NSCLC) | TGI (M14 melanoma) | TGI (NCI-H23 lung) | TGI (OVCAR-8 ovarian) | TGI (RXF 393 renal) [µM] | TGI (SK-OV-3 ovarian) | TGI (SNB-19 CNS) | TGI (LOX IMVI melanoma) | GI50 (EKVX NSCLC) [µM] | GI50 (HCT-15 colon) [µM] | GI50 (HOP-92 NSCLC) [µM] | GI50 (LOX IMVI melanoma) [µM] | GI50 (M14 melanoma) [µM] | GI50 (NCI-H23 lung) [µM] | GI50 (OVCAR-8 ovarian) [µM] | GI50 (RXF 393 renal) [µM] | GI50 (SNB-19 CNS) [µM]
1 | Cc1c(O)nc(-n2[nH]c3c(c2=O)CCCC3)[nH]c1=O | > 100 µM | > 100 µM | > 100 µM | > 100 µM | > 100 µM | > 100 µM | > 100 | > 100 µM | > 100 µM |  |  |  |  |  |  |  |  |  | 
2 | CCOC(=O)C1S/C(=N\C(=N)N[N+](=O)[O-])N=C1C (stereo not drawn) | > 100 µM | > 100 µM | > 100 µM |  | > 100 µM | > 100 µM | > 100 |  | > 100 µM | > 100 µM |  |  |  |  |  |  |  |  | 
3 | CC(NC(=O)Cc1ccccc1)NC(=O)C(C)C(=O)Nc1ccccc1 (stereo not drawn) | > 100 µM | > 100 µM | > 100 µM | > 100 µM | > 100 µM | > 100 µM | > 100 | > 100 µM | 75.8 µM |  |  |  |  |  |  |  |  |  | 
4 | Cc1c(/C=N\NC(=S)NCCNC(=S)N/N=C\c2c(C)n(C)n(-c3ccccc3)c2=O)c(=O)n(-c2ccccc2)n1C | > 100 µM | > 100 µM | > 100 µM | > 100 µM | > 100 µM |  | > 100 | > 100 µM | > 100 µM |  |  |  |  |  |  |  |  |  | 
5 | C[C@H](CCC(=O)O)[C@H]1CC[C@H]2[C@@H]3C(=O)C[C@@H]4C[C@H](O)CC[C@]4(C)[C@H]3C[C@H](O)[C@]12C | > 100 µM | > 100 µM | > 100 µM | > 100 µM | > 100 µM | > 100 µM | > 100 |  | > 100 µM | > 100 µM |  |  |  |  |  |  |  |  | 
6 | C=C1CC(C#N)(C#N)[C@H]2C3CCCC3C[C@@H]12 (stereo partly drawn) (tested in a mixture with another compound) | 98.4 µM | 32.8 µM | 35 µM | 29.2 µM |  | 33 µM | 41.7 | > 100 µM | 67.4 µM |  |  |  |  |  |  |  |  |  | 
7 | O=C1OCC/C1=N/O | > 100 µM | > 100 µM | > 100 µM | > 100 µM | > 100 µM | > 100 µM | > 100 | > 100 µM |  |  |  |  |  |  |  |  |  |  | 
8 | C[n+]1c(/C=C/c2c(O)ccc3ccccc23)ccc2ccccc21 | 12.9 µM | 13.1 µM | 6.17 µM | 12.8 µM | 13.7 µM | 14.9 µM | 10.7 |  | 14.8 µM | 12.7 µM | 4.72 | 5.84 | 0.854 | 5.65 | 5.8 | 5.1 | 5.2 | 4.54 | 6.56
9 | O=C1c2ccccc2C(=O)N1n1c(Cc2ccc([N+](=O)[O-])cc2)n[nH]c1=O |  | > 100 µM | > 100 µM |  | > 100 µM | > 100 µM | > 100 |  | > 100 µM |  |  |  |  |  |  |  |  |  | 
10 | C=CCn1c(=O)c(C(=O)Nc2nc(C34CC5CC(CC(C5)C3)C4)cs2)c(O)c2ccccc21 | > 100 µM | > 100 µM | 84.4 µM |  | > 100 µM | > 100 µM | > 100 |  | > 100 µM | > 100 µM |  |  |  |  |  |  |  |  | 
11 | CCOC(=O)c1c(-c2ccc(O)c(OC)c2)c(C#N)c(=S)n(C2OC(CO)C(O)C(O)C2O)c1-c1ccccc1 (stereo not drawn) | > 100 µM | > 100 µM | > 100 µM | > 100 µM | > 100 µM | > 100 µM | > 100 |  | > 100 µM | > 100 µM |  |  |  |  |  |  |  |  | 
12 | OC[C@H]1O[C@@H]2O[C@@](COCc3ccccc3)([C@H](OCc3ccccc3)[C@H]2O)[C@@H]1OCc1ccccc1 | 28 µM | 36.1 µM | 28.1 µM | 32.9 µM | 34.1 µM | 29.1 µM |  | 27.9 µM | 32.4 µM | 32.2 µM |  |  |  |  |  |  |  |  | 
13 | CCOC(=O)N1CCC(N[C@@H]2c3cc4c(cc3C(c3cc(OC)c(O)c(OC)c3)C3C(=O)OC[C@@H]32)OCO4)CC1 (stereo partly drawn) | 4.86 µM and 7.1 µM | 2.97 µM and 4.43 µM | 3.5 µM and 3.67 µM | 6.31 µM and 8.14 µM | 2.62 µM and 2.69 µM | 11.6 µM and 10.3 µM |  | 4.6 µM and 4.45 µM | 7.1 µM and 6.95 µM | 7.97 µM and 12.4 µM |  |  |  |  |  |  |  |  | 
14 | CSC1=N/C(=C\c2ccc(C)cc2)C(=O)N1CN1CCCCC1 | > 100 µM | > 100 µM | > 100 µM | > 100 µM | > 100 µM | > 100 µM |  | > 100 µM | > 100 µM | > 100 µM |  |  |  |  |  |  |  |  | 
15 | On1c(-c2ccccc2)c(-c2ccccc2N2CCCC2)c2ccccc21 | > 100 µM | > 100 µM | > 100 µM | > 100 µM | > 100 µM | > 100 µM |  | > 100 µM | > 100 µM | > 100 µM |  |  |  |  |  |  |  |  | 
16 | O=C1c2cc(-c3ccccc3)cnc2S(=O)(=O)N1c1ccc(Br)cc1 | > 100 µM | > 100 µM | 72.1 µM | > 100 µM | > 100 µM | > 100 µM |  | 53.9 µM | 35 µM | > 100 µM |  |  |  |  |  |  |  |  | 
17 | COC(C)(C)C1(O)CC[C@@H](C)CC1=O (stereo partly drawn) | > 100 µM | > 100 µM | > 100 µM | > 100 µM | > 100 µM | > 100 µM | > 100 | > 100 µM | > 100 µM |  |  |  |  |  |  |  |  |  | 
18 | CC(c1ccccc1)N1CCN(C(C)c2ccccc2)CC1 (stereo not drawn) | > 100 µM | > 100 µM | > 100 µM | 53 µM | > 100 µM | > 100 µM | > 100 |  | > 100 µM | > 100 µM |  |  |  |  |  |  |  |  | 
